Measured values: patent US20250367184A1, “CYP11A1 INHIBITOR FOR USE IN THE TREATMENT OF PROSTATE CANCER” (ORION CORPORATION, priority 2021, published 2025)

Assays:
[1] = system: Patients with progressive mCRPC; assay: Clinical study of compound (1B) in progressive mCRPC patients: PSA change from baseline by activating AR gene alteration status; assay type: in vivo, human; conditions: for subjects with PSA decline of ≥50% (PSA response): oral 10-20 mg daily with corticosteroids, on ADT, prior ARSi
From the text: Patients with progressive mCRPC were enrolled in the clinical trial to study the effect of a CYP11A1 inhibitor 2-5-((1-(methylsulfonyl)piperidin-4-yl)methoxy)-2-((5-(trifluoromethyl) isoindolin-2-yl)methyl)-4/-pyran-4-one (1B). The patients were on ADT therapy and had previously received androgen receptor signalling inhibitor (ARSi) therapy and chemotherapy, or were ineligible for chemotherapy. Three different daily dose levels of compound (1B) with hydrocortisone and fludro-cortisone were given orally to 13 subjects in the dose escalation part. Corticosteroid doses were allowed to be adjusted during the trial based on the subject's clinical condition. The daily doses were 10 mg (10 mg q.d), 15 mg (15 mg q.d) and 20 mg (20 mg q.d). In a separate dosing evaluation part, twice daily dosing of 5 mg and 10 mg of compound (1B), and different glucocorticoid replacement therapy, dexamethasone, and different hydrocortisone dosing regimen were evaluated in 16 patients. Subjects were allowed to continue the therapy until disease progression or intolerable toxicity. Anti-tumour activity was determined by measuring change in the PSA (prostate-specific antigen) value. A decrease in the PSA value indicates anti-tumour activity. PSA response in a patient was defined as at least 50% decline from the baseline PSA value.
(§1) Existence of activating AR-LBD somatic point mutations and AR gene amplification were analysed in plasma cfDNA samples obtained from the patients using the OncoBEAM® prostate cancer digital PCR assay panel (Sysmex Inostics, Inc.) and Guardant360 CDx (Guardant Health, Inc) assay panel. The assay panels were utilized to test the existence of activating AR-LBD mutations including L702H, V716M, V716L, W742C, W742L, H875Y, F877L, T878A, T878S, D891Y, M896T and M896V.

[2] = system: Patients with progressive mCRPC; assay: Clinical study of compound (1A) in progressive mCRPC patients: PSA change from baseline by activating AR gene alteration status; assay type: in vivo, human; conditions: for subjects with PSA decline of ≥50% (PSA response): oral 10-150 mg daily with corticosteroids, on ADT, prior ARSi
From the text: Patients with progressive mCRPC were enrolled in the clinical trial to study the effect of a CYP11A1 inhibitor 2-(isoindolin-2-ylmethyl)-5-((1-(methylsulfonyl)-piperidin-4-yl)methoxy)-4H-pyran-4-one (1A). The patients were on ADT therapy and had previously received androgen receptor signalling inhibitor (ARSi) therapy and chemotherapy, or were ineligible for chemotherapy. Five different daily dose levels of compound (1A) with dexamethasone and fludrocortisone were given orally to 27 patients in the dose escalation/de-escalation part. Corticosteroid doses were allowed to be adjusted during the trial based on the subject's clinical condition. The daily doses were 10 mg (5 mg b.i.d), 30 mg (15 mg b.i.d.), 50 mg (25 mg b.i.d), 100 mg (50 mg b.i.d.), and 150 mg (75 mg b.i.d.). In a separate dosing evaluation part, once daily dosing of 25 mg of compound (1A), and two different glucocorticoid replacement therapies, hydrocortisone and prednisone, were evaluated in 14 patients. Subjects were allowed to continue the therapy until disease progression or intolerable toxicity. Anti-tumour activity was determined by measuring change in the PSA (prostate-specific antigen) value in PSA evaluable patient population (n=37, at least 4-week value available). A decrease in the PSA value indicates anti-tumour activity. PSA response in a patient was defined as at least 50% decline from the baseline PSA value.
as §1, with “activating AR-LBD point mutations including” for “activating AR-LBD mutations including”

| SMILES | subjects with a PSA response (decline of ≥50%) that were activating AR gene alteration positive ([1]; 6 out of 6 PSA responders) | subjects with PSA decline of ≥50% (PSA response) ([1]; subjects with activating AR gene alteration (6 out of 17)) | subjects with PSA decline of ≥50% (PSA response) ([1]; subjects without an activating AR gene alteration (0 out of 8)) | anti-tumour activity (PSA change) in subjects with versus without activating AR gene alteration ([1]; with alteration n=17 compared to without n=8) | subjects with a PSA response (decline of ≥50%) that were activating AR gene alteration positive ([2]; 12 out of 13 PSA responders) | subjects with PSA decline of ≥50% (PSA response) ([2]; subjects with activating AR gene alteration (12 out of 17)) | subjects with PSA decline of ≥50% (PSA response) ([2]; subjects without an activating AR gene alteration (1 out of 20)) | anti-tumour activity (PSA change) in subjects with versus without activating AR gene alteration ([2]; with alteration n=17 compared to without n=20) |
| --- | --- | --- | --- | --- | --- | --- | --- | --- |
| CS(=O)(=O)N1CCC(COc2coc(CN3Cc4ccc(C(F)(F)F)cc4C3)cc2=O)CC1 [1B, 5-((1-(methylsulfonyl)piperidin-4-yl)methoxy)-2-((5-(trifluoromethyl)isoindolin-2-yl)methyl)-4H-pyran-4-one] | 100% | 35.3% | 0% | substantially higher | – | – | – | – |
| CS(=O)(=O)N1CCC(COc2coc(CN3Cc4ccccc4C3)cc2=O)CC1 [1A, 2-(isoindolin-2-ylmethyl)-5-((1-(methylsulfonyl)piperidin-4-yl)methoxy)-4H-pyran-4-one] | – | – | – | – | 92.3% | 70.6% | 5.0% | substantially higher |
